Test results from US11013745B2, “Triazolopyrimidine, triazolopyridine compounds, and the composition thereof for treating PRC2-mediated diseases” (SHANGHAI INSTITUTE OF MATERIA MEDICA, CHINESE ACADEMY OF …, priority 2017, dated 2021).

Experiments:
[1] = test system: Karpas-422 cells; assay: Growth inhibition of Karpas-422 cells in a long term (11 days), CellTiter-Glo; format: cell-based, Human; details: Homo sapiens, 264 h; Karpas-422, 11 days; read-out: Karpas-422 (11 days) IC50
[2] = Liver microsomal stability (rat); format: in vitro ADME; details: for Clearance rate in vivo Clint In Vivo Extpl / Intrinsic clearance rate in vivo Clint In Vitro / Liver clearance rate Clint Hep In Vivo Extpl / Metabolic bioavailability MF %: rat liver microsomes; for half-life: rat, liver microsomes, pH 7.4, rat liver microsomes, read-out: Half life T-half
Procedure: (§1) 1. JANUS and temperature control device was turned on. After being initialized, the pipes were flushed until there was no air bubble in the pipes.
(§2) 2. Preparation of buffers used for the experiment
(§3) Preparation of Tris pH 7.4 buffer (0.1 M): 12.12 g of Tris was dissolved in 1000 mL of H2O, the resulting solution was adjusted to pH 7.4 with 2N HCl, aliquoted at 50 mL per tube, and stored at −20° C.
(§4) Preparation of H2O/0.1% BSA buffer: 200 μL of 25% BSA was added to 50 mL of H2O.
(§5) Preparation of VIVID stock solution: 1 mg of VIVID was dissolved in 1 mL of acetonitrile, aliquoted at 50 μL per tube, and stored at −20° C.
(§6) Preparation of MgCl2 solution (100 mM): 1.016 g of MgCl2 was dissolved in 50 mL Tris pH 7.4 buffer, and aliquoted at 1 mL per tube, and stored at −20° C.
(§7) Preparation of NADPH solution (10 mM): 355 mg of NADPH was dissolved in 42.6 mL of Tris pH 7.4 buffer, aliquoted at 1.8 mL per tube, and stored at −20° C.
(§8) Preparation of Blank control: 7.937 mL of Tris, 163 μL of RLM, 450 μL of MgCl2 solution, 450 μL of NADPH solution and 9 mL of methanol were mixed uniformly, aliquoted at 1 mL per tube, and stored at −20° C.
(§9) 3. Preparation of Compound Working Solution
(§10) Dilution step 1:10 μL of compound stock solution was added to 90 μL of DMSO=1 mM stock solution.
(§11) Dilution step 2: 2 μL of 1 mM stock solution was added to 1 mL of H2O/0.1%6 BSA buffer=[…] working solution.
(§12) Dilution step 3: 245 μL of the working solution was added to a 96-well compound plate and added with 5 μL of VIVID stock solution.
(§13) The 96-well compound plate was shaken on a shaker for 5 min.
(§14) 4. The STM in the JANUS in the computer was open to run the EXCEL file, and the JANUS program was operated and run by following the instructions in the EXCEL file.
(§15) 5. After the JANUS program was finished, acetonitrile/water 50:50 (V/V) was added to column 20 of the 384-well black plate, and blank control was added to column 21 of the 384-well black plate.
(§16) 6. the plate (420 nm-465 nm) was read on a microplate reader to determine the VIVID fluorescence intensity.
(§17) 7. After the plate was sealed, shaken and centrifuged, the sample plate was subjected to the LC/MS instrument for sample analysis.
(§18) A profile of the logarithmic value of the remaining rate of the drug in the incubation system versus the incubation time was plotted, and the slope k was obtained by linear regression. The intrinsic clearance rate in vivo (Clint, mL/min/g) value, the clearance rate in vivo (Cl, mL)/min), liver clearance (Clhep, mL/min) and metabolic bioavailability (% MF) were predicted according to the following equations: […]

[3] = test system: Pfeiffer cells; assay: Pfeiffer cell growth inhibition in a long term (11 days), CellTiter-Glo; format: cell-based, Human; details: Homo sapiens, 264 h, 11 days, read-out: Experiment on Pfeiffer cell growth inhibition in a long term (11 days IC50)
Procedure: Pfeiffer cells in exponential growth phase were seeded in a 24-well plate with a cell density of 1*10E5 cells/mL. Cells were treated on the same day with the compounds at different concentrations. At day 4 and day 7 of compound treatment, fresh media and compounds were changed. After treated with the compounds for 11 days, cell viability was measured using CellTiter-Glo reagent (Promega Corporation). The data was analyzed using GraphPad Prism 5.0 software and GI50 values were obtained.

[4] = target: PRC2 enzyme (Homo sapiens (Human), UniProt O75530); assay: PRC2 enzyme activity, TR-FRET method; format: biochemical
Procedure: The TR-FRET method was used to measure the PRC2 enzyme activity. First, the enzyme was mixed with compounds at different concentrations and incubated for 30 min at room temperature. The biotin-labeled histone H3 peptide substrate and the cofactor S-adenosylmethionine (SAM) were added to initiate the enzymatic reaction. After reaction was performed at room temperature for 4 hour, Acceptor and Donor were added and incubated for half an hour. The multifunctional microplate reader EnVision (Perkin Elmer Inc.) was used to detect the fluorescence signal. Data were analyzed using GraphPad Prism 5.0 software, and IC50 values were obtained.

[5] = test system: Pfeiffer cells; assay: Growth inhibition of Pfeiffer cells in a long term (14 days), CellTiter-Glo; format: cell-based, Human; details: Homo sapiens, 336 h, 14 days, read-out: Pfeiffer (14 days) IC50
Procedure: In a CO2 cell incubator (37° C., 5% CO2), Human diffuse large B-cell lymphoma (DLBCL) cell line, pfeiffer (obtained from ATCC, CRL-2632) were incubated with RPMI 1640 medium (Gibco, purchased from Life Technologies, 22400-089) containing 10% fetal bovine serum (Gibco, purchased from Life Technologies, 10099-141) and 1% antibiotics (penicillin and streptomycin, purchased from Life Technologies, 10378016). […] After seeding the cells, they were placed in a CO2 incubator and allowed to stand for 1 hour. In a 24-well plate containing cells, 2 μL of three-fold gradient of the compounds at 9 different concentrations or DMSO were added to each well, such that the final concentration of the compounds was 0.003-20 μM or 0.3-2000 nM, and the final concentration of DMSO was 0.2%. At day 4, day 7, and day 11 of compound treatment, the fresh medium and compounds were changed, and the cell density of the DMSO control well was diluted to 2*10E5 cells/mL. The cell dilution ratio for other compound wells was the same as that of the DMSO control well. Cell viability was determined by using CellTiter-Glo reagent (purchased from Promega Inc., G7572): cells treated with the compounds for 14 days were transferred to a white 384-well plate (OptiPlate-384, purchased from PerkinElmer, 6007299) at 40 μL/well, an equal volume of CellTiter-Glo reagent was further added. After incubating at room temperature for 10 min, the cold luminescence signal was detected with a multifunctional microplate reader EnVision (PerkinElmer) at a wavelength of 400 to 700 nm. Data were analyzed using GraphPad Prism 5.0 software, and IC50 values were obtained.

[6] = Liver microsomal stability (mouse); format: in vitro ADME; details: for Clearance rate in vivo Clint In Vivo Extpl / Intrinsic clearance rate in vivo Clint In Vitro / Liver clearance rate Clint Hep In Vivo Extpl / Metabolic bioavailability MF %: mouse liver microsomes; for half-life: mouse, liver microsomes, pH 7.4, mouse liver microsomes, read-out: Half life T-half
[7] = Liver microsomal stability (human); format: in vitro ADME; details: for Clearance rate in vivo Clint In Vivo Extpl / Intrinsic clearance rate in vivo Clint In Vitro / Liver clearance rate Clint Hep In Vivo Extpl: human liver microsomes; for half-life / bioavailability: human, liver microsomes, pH 7.4, human liver microsomes; for half-life: read-out: Half life T-half; for bioavailability: read-out: Metabolic bioavailability MF %
Procedure: as §1, §2, §3, §4, §5, §6, §7, §8, §9, §10, §11, §12, §13, §14, §15, §16, §17, §18

[8] = test system: SU-DHL-4 cells; assay: Growth inhibition of SU-DHL-4 cells in a long term (11 days), CellTiter-Glo; format: cell-based, Human; details: Homo sapiens, 264 h; SU-DHL-4, 11 days; read-out: SU-DHL-4 (11 days) IC50
[9] = Oral pharmacokinetics in rats; format: in vivo; details: male, SD, plasma, rat, intragastric, 3 mg/kg; for AUC(0-inf): extrapolated to infinity, read-out: AUCINF_obs; for MRT inf: read-out: Average residence time MRTINF_obs; for half-life: read-out: Half life T1/2 (converted); for Cmax: read-out: Peak concentration Cmax
Procedure: 1. Healthy male SD rats were used as test animals, EED226, […]-07 (3 mg/kg) were administered intragastrically, and the drug concentrations in rat plasma were determined by LC/MS/MS method at different time points after drug administration. The pharmacokinetic behavior of the compounds of the present invention in rats was studied, and the pharmacokinetic properties were evaluated. 2. The test animals were healthy adult male SD rats, with 3 rats in each group, purchased from Shanghai Xipuer-Bikai Laboratory Animal Limited Company. 3. Drug preparation: Compounds EED226, […] were dissolved in DMSO/0.5% HPMC (5/95, v/v) for preparation. The compound SL-ZYE-07 was dissolved in 0.5% HPMC (containing 0.5% Tween 80), vortexed, and sonicated to disperse the solid matter uniformly to obtain a pale white suspension. 4, Operation: EED226, […]-07 were administered to rats by intragastric administration (3 mg/kg), 45 μL of blood was taken through the femoral vein at 0.25, 0.5, 1, 2, 4, 8, 24 hour after administration, and centrifuged in a heparinized centrifuge tube for 5 min, and the plasma samples were separated for analysis. The contents of test compounds in rat plasma after intragastric administration of different compounds were determined by Liquid chromatography-mass spectrometry (LC-MS/MS).

Sequence of PRC2 enzyme (O75530 whole entry): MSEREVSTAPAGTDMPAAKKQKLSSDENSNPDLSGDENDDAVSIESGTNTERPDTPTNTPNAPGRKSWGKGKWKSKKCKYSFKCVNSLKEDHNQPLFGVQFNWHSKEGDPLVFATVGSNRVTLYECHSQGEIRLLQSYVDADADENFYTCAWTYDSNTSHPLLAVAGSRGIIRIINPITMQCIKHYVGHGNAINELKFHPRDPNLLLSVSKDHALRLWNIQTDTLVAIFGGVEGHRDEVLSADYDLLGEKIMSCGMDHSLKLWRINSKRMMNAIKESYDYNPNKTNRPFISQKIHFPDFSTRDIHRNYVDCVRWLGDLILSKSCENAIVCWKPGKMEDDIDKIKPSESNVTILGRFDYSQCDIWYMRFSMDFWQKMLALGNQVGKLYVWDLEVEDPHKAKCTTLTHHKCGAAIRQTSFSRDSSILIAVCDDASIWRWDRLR
Sequence of PRC2 enzyme (Q15910 whole entry partner): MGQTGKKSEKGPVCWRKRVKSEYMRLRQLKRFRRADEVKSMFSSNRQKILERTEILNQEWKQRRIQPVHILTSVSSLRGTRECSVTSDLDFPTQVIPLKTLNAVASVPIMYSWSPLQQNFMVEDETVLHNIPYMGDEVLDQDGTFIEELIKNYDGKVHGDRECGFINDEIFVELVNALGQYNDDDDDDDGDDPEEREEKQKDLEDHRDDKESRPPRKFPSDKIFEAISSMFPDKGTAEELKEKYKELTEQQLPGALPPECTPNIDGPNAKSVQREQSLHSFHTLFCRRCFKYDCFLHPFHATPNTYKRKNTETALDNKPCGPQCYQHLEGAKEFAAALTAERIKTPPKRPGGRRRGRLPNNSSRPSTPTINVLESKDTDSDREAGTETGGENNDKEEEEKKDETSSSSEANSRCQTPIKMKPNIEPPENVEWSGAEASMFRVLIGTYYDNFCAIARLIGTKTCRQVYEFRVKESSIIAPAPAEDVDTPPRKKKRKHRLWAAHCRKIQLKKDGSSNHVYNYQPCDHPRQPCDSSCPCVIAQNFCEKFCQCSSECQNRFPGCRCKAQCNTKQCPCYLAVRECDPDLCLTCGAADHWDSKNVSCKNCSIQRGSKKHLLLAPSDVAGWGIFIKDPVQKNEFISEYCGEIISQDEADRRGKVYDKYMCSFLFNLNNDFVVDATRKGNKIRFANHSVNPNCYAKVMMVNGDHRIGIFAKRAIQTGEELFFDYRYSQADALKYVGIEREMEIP
Sequence of PRC2 enzyme (Q15022 whole entry partner): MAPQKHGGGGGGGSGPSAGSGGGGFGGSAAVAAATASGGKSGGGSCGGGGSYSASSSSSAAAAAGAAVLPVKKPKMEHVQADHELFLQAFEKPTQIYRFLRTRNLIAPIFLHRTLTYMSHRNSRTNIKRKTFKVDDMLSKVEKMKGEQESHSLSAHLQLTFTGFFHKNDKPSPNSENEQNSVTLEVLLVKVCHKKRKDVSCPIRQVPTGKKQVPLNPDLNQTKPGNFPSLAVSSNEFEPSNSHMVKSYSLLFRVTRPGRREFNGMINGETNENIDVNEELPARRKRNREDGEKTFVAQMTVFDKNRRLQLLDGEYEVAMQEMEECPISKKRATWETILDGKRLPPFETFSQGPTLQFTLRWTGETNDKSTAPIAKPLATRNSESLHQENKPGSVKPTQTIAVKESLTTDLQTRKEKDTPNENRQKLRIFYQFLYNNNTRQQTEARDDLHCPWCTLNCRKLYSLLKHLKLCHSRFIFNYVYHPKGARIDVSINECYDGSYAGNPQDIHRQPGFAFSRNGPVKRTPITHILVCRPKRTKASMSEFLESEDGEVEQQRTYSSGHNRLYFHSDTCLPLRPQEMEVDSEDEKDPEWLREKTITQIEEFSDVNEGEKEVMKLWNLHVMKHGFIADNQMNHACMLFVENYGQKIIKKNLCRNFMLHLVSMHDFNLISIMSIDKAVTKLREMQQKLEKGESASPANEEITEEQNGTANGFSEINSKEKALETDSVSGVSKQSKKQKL

| Compound | IC50 [1] | Clearance rate in vivo Clint In Vivo Extpl [2] | Intrinsic clearance rate in vivo Clint In Vitro [2] | Liver clearance rate Clint Hep In Vivo Extpl [2] | Metabolic bioavailability MF % [2] | half-life [2] | IC50 [3] | IC50 [4] | IC50 [5] | Clearance rate in vivo Clint In Vivo Extpl [6] | Intrinsic clearance rate in vivo Clint In Vitro [6] | Liver clearance rate Clint Hep In Vivo Extpl [6] | Metabolic bioavailability MF % [6] | half-life [6] | Clearance rate in vivo Clint In Vivo Extpl [7] | Intrinsic clearance rate in vivo Clint In Vitro [7] | Liver clearance rate Clint Hep In Vivo Extpl [7] | half-life [7] | bioavailability [7] | IC50 [8] | other results |
| --- | --- | --- | --- | --- | --- | --- | --- | --- | --- | --- | --- | --- | --- | --- | --- | --- | --- | --- | --- | --- | --- |
| CC(=O)N1CC=C(c2cnc(NCc3c(F)ccc4c3CCO4)n3cnnc23)CC1 [E-Y15] | 7 nM | 64.7 mL/min | 144 mL/min/gprot | 15.3 mL/min | 23.6% | 0.243 h | 1.9 nM | 5.6 nM | 0.7 nM | 5.51 mL/min | 81.6 mL/min/gprot | 1.94 mL/min | 35.3% | 0.428 h | 1280 mL/min | 16.7 mL/min/gprot | 691 mL/min | 2.1 h | 54% | 3 nM |  |
| Fc1ccc2c(c1CNc1ncc(C3CCOCC3)c3nncn13)CCO2 [E-Y47] | 18 nM | 6.79 mL/min | 15.1 mL/min/gprot | 5.07 mL/min | 74.7% | 2.32 h |  | 13 nM | 6 nM | 1.17 mL/min | 17.3 mL/min/gprot | 0.841 mL/min | 72.0% | 2.02 h | 519 mL/min | 6.79 mL/min/gprot | 386 mL/min | 5.15 h | 74.3% |  | AUC(0-t) [9]: 7890 ± 2430 ng·h/mL; AUC(0-inf) [9]: 7900 ± 2440 ng·h/mL; MRT inf [9]: 4.92 ± 0.369 h; half-life [9]: 2.56 ± 0.302 h; Cmax [9]: 1300 ± 628 ng/mL |
| CN1CCC(c2cnc(NCc3c(F)ccc4c3CCO4)n3cnnc23)=CC1=O [SL-E24] | 3.1 nM |  |  |  |  |  | 5.1 nM | 3.9 nM | 3 nM |  |  |  |  |  |  |  |  |  |  | 3 nM |  |
| Fc1ccc2c(c1CNc1ncc(C3=CCCOCC3)c3nncn13)CCO2 [SL-ZYE-07] | 25 nM |  |  |  |  |  |  | 7.3 nM | 1 nM |  |  |  |  |  |  |  |  |  |  | 5 nM | AUC(0-t) [9]: 891 ± 164 ng·h/mL; AUC(0-inf) [9]: 910 ± 174 ng·h/mL; MRT inf [9]: 4.71 ± 0.896 h; half-life [9]: 3.77 ± 1.69 h; Cmax [9]: 155 ± 34.8 ng/mL |
| CCS(=O)(=O)N1CC=C(c2cnc(NCc3c(F)ccc4c3CCO4)n3cnnc23)CC1 [SL-ZYE-144] | 4 nM |  |  |  |  |  | 1.8 nM | 3.5 nM | 0.8 nM |  |  |  |  |  |  |  |  |  |  | 3 nM |  |
